According to PubChem BioAssay AID1963866 (Molecular Pharmacology Branch, DTP, NCI, 2024):

System: PDC KRAS tumor spheroids with HUVEC/MSC, viability
Assay: Anticancer human tumor 349418-098-R-PDC patient-derived lung adenocarcinoma cell line growth inhibition [KRAS2]
Details: for IC50: curve of first compound; for viability, T/C: stronger effect = lower value
Procedure, shortened: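 Combination screen of spheroid viability in tumor-cell co-cultures with endothelial (HUVEC) and mesenchymal stem cell stroma. Each agent was tested in half-log dilutions, topping at clinical Cmax or at 10 microM without a known Cmax.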
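Further: spheroids exposed to compounds for seven days before readout.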

CCN1CCN(Cc2ccc(Nc3ncc(F)c(-c4cc(F)c5nc(C)n(C(C)C)c5c4)n3)nc2)CC1 + CC1OCC2(CCN(c3cnc(Sc4ccnc(N)c4Cl)c(N)n3)CC2)C1N
IC50 (second compound 0.1 µM): 5.38 nM
IC50 (second compound 0.316 µM): 3.38 nM
IC50 (second compound 1 µM): 7.27 nM
IC50 (second compound 3.16 µM): 7.9 nM
IC50 (second compound 10 µM): 6.16 nM
viability, T/C (second compound 0.1 µM, first compound 0.00316 µM): 66.4%
viability, T/C (second compound 0.1 µM, first compound 0.01 µM): 28.3%
viability, T/C (second compound 0.1 µM, first compound 0.0316 µM): 21.4%
viability, T/C (second compound 0.1 µM, first compound 0.1 µM): 14.6%
viability, T/C (second compound 0.1 µM, first compound 0.316 µM): 13.6%
viability, T/C (second compound 0.1 µM, first compound 1 µM): 4.93%
viability, T/C (second compound 0.316 µM, first compound 0.00316 µM): 50.9%
viability, T/C (second compound 0.316 µM, first compound 0.01 µM): 37.3%
viability, T/C (second compound 0.316 µM, first compound 0.0316 µM): 18.1%
viability, T/C (second compound 0.316 µM, first compound 0.1 µM): 23.4%
viability, T/C (second compound 0.316 µM, first compound 0.316 µM): 10.2%
viability, T/C (second compound 0.316 µM, first compound 1 µM): 6.35%
viability, T/C (second compound 1 µM, first compound 0.00316 µM): 70.2%
viability, T/C (second compound 1 µM, first compound 0.01 µM): 43.6%
viability, T/C (second compound 1 µM, first compound 0.0316 µM): 21.1%
viability, T/C (second compound 1 µM, first compound 0.1 µM): 16.4%
viability, T/C (second compound 1 µM, first compound 0.316 µM): 10.7%
viability, T/C (second compound 1 µM, first compound 1 µM): 3.95%
viability, T/C (second compound 3.16 µM, first compound 0.00316 µM): 61.6%
viability, T/C (second compound 3.16 µM, first compound 0.01 µM): 49.8%
viability, T/C (second compound 3.16 µM, first compound 0.0316 µM): 23.7%
viability, T/C (second compound 3.16 µM, first compound 0.1 µM): 18.1%
viability, T/C (second compound 3.16 µM, first compound 0.316 µM): 10.1%
viability, T/C (second compound 3.16 µM, first compound 1 µM): 3.58%
viability, T/C (second compound 10 µM, first compound 0.00316 µM): 68.6%
viability, T/C (second compound 10 µM, first compound 0.01 µM): 36.7%
viability, T/C (second compound 10 µM, first compound 0.0316 µM): 18.2%
viability, T/C (second compound 10 µM, first compound 0.1 µM): 15.1%
viability, T/C (second compound 10 µM, first compound 0.316 µM): 9.7%
viability, T/C (second compound 10 µM, first compound 1 µM): 3.29%
